Usually ED50 stands for the dose that gives a 50% effect, or the effect in half of the subjects. Usually half-life stands for the time needed for the level to fall by half in the phase considered.

This is an account of results in patent publication US4571393A, “3-Phenoxy-1-azetidinecarboxamides” (A. H. Robins Company, Incorporated, priority 1984, dated 1986).

Series [1] in a line: anticonvulsant activity against Metrazole (pentylenetetrazol) s.c. in mice, method of Swinyard. In kind it is in vivo. As to conditions: for Number Protected / Number Tested: 1/2 hr before 80 mg/kg s.c. Metrazole; for ED50: Mus musculus, ip, 80 mg/kg s.c. Metrazole, probit analysis, read-out: ED50 and (Confidence Limits). The text has this: The procedure for testing the compounds for their anticonvulsant activity and comparison with prior art compounds is based on evaluation techniques published by Swinyard, E. A. in EPILEPSIA 10: 107-19 (1969) and in J. PHARMAC. EXPTL. THERAP. 106: 319-30 (1952) as explained in greater detail below.
A comparison was made of anti-convulsant activity of the compound of Example 1 and the prior art methyl analog (U.S. Pat. No. 4,226,861, Example 4) using metrazole as the convulsant by the method of Swinyard (See above citation).
Ninety-six adult female mice weighing 24-32 g were randomly assigned to dosage groups according to the method of Steel, R. G. D. and Torrie, J. H. (1960) in "Principles and Procedures of Statistics," McGraw-Hill Book Company, Inc., pp 99-100, pp 428-31. Each mouse was identified with a color code on its tail. The test compounds were administered as suspensions in 10 ml/kg mouse body weight of 0.5% aqueous methyl cellulose within 15 minutes of preparation of the suspension. Metrazole (pentylenetetrazol) was prepared as a solution in physiological saline. The mice were not fasted prior to the test. Eight mice were tested at each dosage level.
Each mouse received one dose of the test drug in the 0.5% aqueous methylcellulose or the control article (0.5% aqueous methylcellulose alone) intraperitoneally. Metrazole (80 mg/kg S.C.) was then given in a loose fold of skin on the back of the neck; i.e., 1/2 hr after the test compound or control article was given. Injections were given with a 1-ml glass tuberculin syringe with appropriate size hypodermic needle (27 gauge for solutions; 23 gauge for suspensions). All injections were given in a volume of 10 ml/kg mouse body weight. […] Anticonvulsant data were tabulated as the percent protection, i.e., [formula] The ED50 and (95% confidence limits) and potency ratio were ascertained by the computer-based probit analysis ascribed to Finney, D. J. (1964) Statistical Method in Biological Assay., 2nd Ed., New York. Hefner Publishing Co. Results are in Table A. Statistical analysis of the data indicated no significant difference in anti-convulsant potency between the two compounds.
(a) All mice were first injected with 10 ml/kg of 0.5% aqueous
methylcellulose intraperitoneally in which test compound was suspended if
(b) 80 mg/kg Metrazole in 10 ml saline of mouse body weight was
administered to all mice subcutaneously in a loose fold of skin on the
back of the neck onehalf hr. after administration of test compound.

The nature of series [2]: plasma half-life of elimination, two-way crossover oral/intravenous study in dogs. In kind it is in vivo, mongrel dogs. As to conditions: 10 mg/kg, average of oral and intravenous testing, dog plasma, HPLC; read-out: mean apparent terminal half-life of elimination (converted). As for the experimental part:
Tests were conducted in order to compare the apparent half-life of elimination in the animal bloodstream of compounds of the present invention with that of the parent prior art compounds of which they are the metabolites as follows:
A two-way crossover study was conducted on male and female adult mongrel dogs. Each dog, after overnight fasting, received a single oral or intravenous dose of 10 mg/kg of test drug in 75% PEG in water and in such concentration that each dog received 1 ml of solution/kg of body weight. Oral doses were administered by using a glass syringe attached to a Levin® tube (size 18 French) which served as the stomach tube. […] Plasma levels of the test drug in the samples were determined by the HPLC method described by Osman, M. A.; Pinchbeck, F. M.; Cheng, L. K.; and Wright, G. J. described in the Journal of Chromatography, 336 (1981). […] The test drug being measured and the internal standard were then extracted from the plasma into a mixture of hexane, methylene chloride and butanol. […] The final solution was chromatographed on a Waters® column C18 reverse-phase system, the samples being analyzed in sequential order starting with the 0-hr sample (control) and proceeding to the 24 hr sample for the same animal. Duplicate assays were carried out for each sample and the mean value was recorded. […]

Regarding `NC(=O)N1CC(Oc2cccc(C(F)(F)F)c2)C1` [Example 1, 3-[3-(Trifluoromethyl)phenoxy]-1-azetidinecarboxamide], the “Number Protected / Number Tested” value was 1/8 in series [1] (45 mg/kg i.p.); 2/8 in series [1] (67 mg/kg i.p.); 4/8 in series [1] (100 mg/kg i.p.); 5/8 in series [1] (150 mg/kg i.p.); 8/8 in series [1] (225 mg/kg i.p.). Further, in series [1], the ED50 came out at 99.2 mg/kg. The “Potency and 95% Confidence Limits” value in series [1] (potency ratio, prior art compound 1.00, i.p.) is listed as 0.92. The half-life in series [2] was 2.4 ± 0.4 h.

With `CNC(=O)N1CC(Oc2cccc(C(F)(F)F)c2)C1` [Example 4 of U.S. Pat. No. 4,226,861, N-methyl-3-(3-trifluoromethyl) phenoxy-1-azetidinecarboxamide, reference compound], the “Number Protected / Number Tested” value in series [1] (45 mg/kg i.p.) is reported as 1/8; in series [1] (67 mg/kg i.p.) it was 2/8; in series [1] (100 mg/kg i.p.) it was 3/8; in series [1] (150 mg/kg i.p.), 8/8. Besides, the median effective dose (ED50) in series [1] stood at 90.9 mg/kg. Moreover, in series [2], the half-life was 1.3 ± 0.4 h.
